Tests used:
A549 = assay: Cytotoxicity against A549 cells; No cytotoxicity; type: functional, cell-based; conditions: Homo sapiens
HCEC = assay: Cytotoxicity against HCEC cells; No cytotoxicity; type: functional, cell-based; conditions: Homo sapiens

Structure (SMILES) | Cytotoxicity (A549) | Cytotoxicity (HCEC)
CCOCCOCCOCCOC(=O)CCC(=O)CN | No cytotoxicity | No cytotoxicity
CCOCCOC(=O)CCC(=O)CN | No cytotoxicity | No cytotoxicity
CCOCCOCCOC(=O)CCC(=O)CN | No cytotoxicity | No cytotoxicity
COCCOC(=O)CCC(=O)CN | No cytotoxicity | No cytotoxicity
